For experiment [1], the system named is synaptic proteins (GluR1, Synapsin 1, PSD95). Description: Western blot of synaptic proteins in crude synaptosomes from rat prefrontal cortex. The following applies: for levels of GluR1 in crude PFC synaptosomes / levels of PSD95 in crude PFC synaptosomes / levels of Synapsin 1 in crude PFC synaptosomes: Example B, 24 hr after administration. The format is in vivo. The procedure:
Study Design. Forty-eight (48) male Sprague Dawley rats weighing between 175 and 200 g were randomized into 8 study groups (n=6/group), following a 5-day acclimation period. On study day 0, rats in Groups 3 and 7 received a single dose of Sal while Groups 4 and 8 received a single dose of Ket (10 mg/kg) each by i.p. injection. […] One hour after dosing, rats in Groups 1-4 were sacrificed by conscious decapitation and followed by collection of the PFC. Crude synaptosomes were prepared from the PFC and three mTORC1 substrates, pmTOR, pp70S6K and p4E-BP1, and corresponding total protein loading controls (mTOR, p70S6K, and GAPDH) were quantitated by WB. Twenty-four hours after dosing, rats in Groups 5-8 were sacrificed by conscious decapitation and collection of the PFC. Crude synaptosomes were prepared from the PFC and the synaptic proteins (GluR1 and PSD95), as well as the total protein loading control (GAPDH), were quantitated by WB.
Prefrontal Cortex Synaptosome Preparations. The brain was dissected from rats in all groups (n=6/group) and rinsed in PBS. The PFC was collected as shown in FIG. 6 and homogenized at 4° C. in homogenization buffer (0.32 M sucrose, 20 mM HEPES at pH 7.4, 1 mM EDTA, 5 mM NaF, 1 mM NaVO3 and protease inhibitor cocktail (Roche; Ser. No. 19/543,200)). The homogenate was centrifuged for 10 min at 2,800 rpm at 4° C. after which the supernatant was removed and re-centrifuged at 12,000 rpm for 10 min at 4° C. The resulting pellet containing crude synaptosomes was re-suspended in Lysis buffer (50 mM Tris-HCl (pH 7.5), 150 mM NaCl, 1% Triton X-100, 0.1% SDS, 2 mM, EDTA, 1 mM NaVO3, 5 mM NaF and protease inhibitor cocktail) and sonicated on ice for 20 s at 50% amplitude. The protein concentration was determined by Bradford assay and all samples were mixed with loading buffer (60 mM Tris-HCl pH 6.8, 20 mM DTT, 2% SDS, 10% glycerol, 5% β-mercaptoethanol and 0.01% Bromophenol blue) and stored at -20° C. until WB analysis.
Western Blot Analysis: Western blot analysis for GluR1, PSD95 and GAPDH was performed as previously described. Briefly, synaptosomes preparations (15 μg total protein) were loaded into 10-15% SDS PAGE gel for electrophoresis and transferred to a polyvinylidene difluoride (PVDF) membrane in transfer buffer (10× premixed electrophoresis buffer contains 25 mM Tris, 192 mM glycine, pH 8.3; Bio-Rad). The PVDF membranes were blocked for 1 hr at room temperature with blocking buffer (2% BSA in PBS-T (10 mM Phosphate, pH 7.4, 2.7 mM KCl, 137 mM NaCl and 0.1% Tween-20)) and subsequently incubated with primary antibodies: rabbit anti-pmTOR at 1:1000 (Cell Signaling; #5536), rabbit anti-mTOR at 1:1000 (Cell Signaling; #2972), rabbit anti-pp70S6K at 1:1000 (Cell Signaling; #9205), rabbit anti-p70S6K at 1:1000 (Cell Signaling; #2708), rabbit anti-p4E-BP1 at 1:1000 (Cell Signaling; #2855), rabbit anti-GluR1 at 1:1000 (Cell Signaling; #13185), rabbit anti-Synapsin 1 at 1:1000 (Cell Signaling; #5297), rabbit anti-PSD95 at 1:1000 (Cell Signaling; #9644) and rabbit anti-GAPDH at 1:1000 (Cell Signaling; #5174) in blocking buffer overnight at 4° C. The next day, membranes were washed 3 times in PBS-T buffer and incubated with horseradish peroxidase conjugated anti-mouse or anti-rabbit secondary antibody at 1:5000 to 1:10000 (Vector Laboratories Inc) for 1 hr. After final three washes with PBS-T buffer, bands were detected using enhanced chemiluminescence. The blots then were incubated in the stripping buffer (2% SDS, 100 mM β-mercaptoethanol, 50 mM Tris-HCl pH 6.8) for 30 min at 50-55° C. followed by three washes with PBS-T buffer. The stripped blots were kept in blocking solution for 1 hr and incubated with the primary antibody directed against total levels of the respective protein or GAPDH for loading control. Densitometric analysis of phospho- and total immunoreactivity for each protein was conducted using NIH Image J software. […]

Experiment [2] concerns Male Sprague Dawley rats. As to the kind of experiment: Female Urine Sniffing Test (FUST). The format is in vivo, rat. The following applies: Example A, 24 hrs post-dose; for time spent sniffing female urine (FUST): mean±SEM, n=8. As to the method: Behavioral Analysis Using the Female Urine Sniffing Test (FUST): The FUST was conducted according to published procedures (Malkesman, O. et al, Biol Psychiatry 67(9): 864-71 (2010)), 24 hr post-dosing. Briefly, rats were habituated for 60 min to a cotton swab dipped in tap water in their home cage. Next, rats were exposed to a 2nd cotton swab dipped in tap water and 45 min later they were exposed to a 3rd cotton swab infused with fresh rat urine from 11 to 14-week-old female rats in estrus. The total time (s) spent sniffing the cotton-tipped applicator was quantitated over 5 min for each animal.
Study Design. Thirty-two (32) male Sprague Dawley Male rats weighing between 175 and 200 g were randomized into 4 study groups (n=8/treatment group), following a 5-day acclimation period. On study day 0, rats received a single dose of either saline (Sal) or ketamine (Ket) in Groups 1 and 2, respectively, by intraperitoneal injection (i.p.). The rats in Group 3 and 4 received a single dose of the NV-5138 vehicle (Veh, 0.5% Methylcellulose/0.1% Tween-80) or NV-5138 (160 mg/kg), respectively, by oral gavage. All rats were subjected to the FUST on day 1, 24 hrs after dosing. On day 2, 48 hrs after dosing, the LMA of all rats was measured in an open field. Rats were then fasted for 20 hrs and subjected to the NSFT, 72 hrs post-dose.
Preparation of Test Articles. Ket (Sigma, cat #K1884) was dissolved in Sal at a concentration of 10 mg/mL. A volume of 1 ml/kg of Sal or Ket was injected i.p. for Groups 1 and 2, respectively. NV-5138 (Navitor, lot #06) was prepared by dissolving in Veh (0.5% methylcellulose/0.1% Tween-80) at a concentration of 50 mg/mL. The dosing volume based on the weight of the animal (3.2 mL/kg) of Veh or NV-5138 was administered by oral gavage to study animals in Groups 3 and 4, respectively. Test articles were prepared the day of dosing.

`CNC1(c2ccccc2Cl)CCCCC1=O` (stereo not drawn) [Ket, ketamine, reference compound]: in experiment [1] (Ket 10 mg/kg i.p.), the “levels of GluR1 in crude PFC synaptosomes” value is “significantly increased”, the “levels of PSD95 in crude PFC synaptosomes” value is listed as “significantly increased” and the “levels of Synapsin 1 in crude PFC synaptosomes” value is on record as “significantly increased”. Besides, the “time spent sniffing female urine (FUST)” value in experiment [2] (Ket 10 mg/kg i.p. single dose) turned out to be 36.5 ± 7.9 s. Moreover, the “increase in time spent sniffing female urine vs Sal” value in experiment [2] (Ket 10 mg/kg i.p. single dose, p<0.05) was determined as 2.1 fold.
Consider `CC(C)(C[C@H](N)C(=O)O)C(F)F` [NV-5138], for which, in experiment [1] (NV-5138 160 mg/kg oral), the “levels of GluR1 in crude PFC synaptosomes” value was “significantly increased”, the “levels of PSD95 in crude PFC synaptosomes” value is “trend toward increased expression” and the “levels of Synapsin 1 in crude PFC synaptosomes” value is “significantly increased”. In experiment [1] (Example E, CUS rats, NV-5138 160 mg/kg oral, 24 hrs after second dose (day 5), p<0.01), the “GluR1 in crude PFC synaptosomes” value is reported as “normalization”. Besides, the “PSD95 in crude PFC synaptosomes” value in experiment [1] (Example E, CUS rats, NV-5138 160 mg/kg oral, 24 hrs after second dose (day 5), p<0.05) is recorded as “normalization”. The “time spent sniffing female urine (FUST)” value in experiment [2] (NV-5138 160 mg/kg oral single dose) amounted to 33.8 ± 2.9 s. For the same compound, in experiment [2] (NV-5138 160 mg/kg oral single dose, p<0.01), the “increase in time spent sniffing female urine vs Veh” value is 2.9 fold.

Values taken from patent US20210228523A1, “MODULATORS OF SESTRIN-GATOR2 INTERACTION AND USES THEREOF” (Navitor Pharmaceuticals, Inc., priority 2017, published 2021).
